The record followed here is ChEMBL document CHEMBL5338713, “Discovery of pomalidomide-based PROTACs for selective degradation of histone deacetylase 8” (Eur J Med Chem, 2022).

The target of this test is T1, Histone deacetylase 8 (Homo sapiens) (UniProt Q9BY41).
T1 sequence (whole entry): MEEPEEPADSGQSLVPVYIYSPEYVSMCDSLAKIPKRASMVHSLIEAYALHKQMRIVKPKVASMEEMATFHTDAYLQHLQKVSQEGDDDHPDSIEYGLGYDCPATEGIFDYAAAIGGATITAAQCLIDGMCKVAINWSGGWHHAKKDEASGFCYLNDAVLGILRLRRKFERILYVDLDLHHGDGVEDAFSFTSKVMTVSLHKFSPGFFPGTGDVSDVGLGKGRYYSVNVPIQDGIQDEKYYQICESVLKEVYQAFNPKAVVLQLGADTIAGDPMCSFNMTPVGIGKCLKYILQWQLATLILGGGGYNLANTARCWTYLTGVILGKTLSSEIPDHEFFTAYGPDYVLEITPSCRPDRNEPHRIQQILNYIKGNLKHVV
Kind of test: Induction of HDAC8 degradation in human HCT-116 cells at 5 uM by Western blot analysis relative to control. Type of test: cell-based.
`O=C(CCCCCOc1ccc(CCNC(=O)c2cccc(C(=O)NO)c2)cc1)NCCCCCCNc1cccc2c1C(=O)N(C1CCC(=O)NC1=O)C2=O` (stereo not drawn) had an Activity of 45.2%.
`O=C1CCC(N2C(=O)c3cccc(N4CCN(CC5CN(C(=O)CCCCOc6ccc(CCNC(=O)c7cccc(C(=O)NO)c7)cc6)C5)CC4)c3C2=O)C(=O)N1` (stereo not drawn): the Activity was 6.54%.
Turning to `O=C(CCCCOc1ccc(CCNC(=O)c2cccc(C(=O)NO)c2)cc1)NCCCNc1cccc2c1C(=O)N(C1CCC(=O)NC1=O)C2=O` (stereo not drawn), the Activity came out at 25.8%.
For the compound `O=C(CCCCCOc1ccc(CCNC(=O)c2cccc(C(=O)NO)c2)cc1)NCCCCNc1cccc2c1C(=O)N(C1CCC(=O)NC1=O)C2=O` (stereo not drawn), the Activity was determined as 24.4%.
The compound `O=C(CCCCCCOc1ccc(CCNC(=O)c2cccc(C(=O)NO)c2)cc1)NCCCNc1cccc2c1C(=O)N(C1CCC(=O)NC1=O)C2=O` (stereo not drawn) returned an Activity of 30.5%.
Take `O=C(COc1ccc(CCNC(=O)c2cccc(C(=O)NO)c2)cc1)NCCCCCNc1cccc2c1C(=O)N(C1CCC(=O)NC1=O)C2=O` (stereo not drawn): the Activity was found to be 10.7%.
Take `O=C(CCCOc1ccc(CCNC(=O)c2cccc(C(=O)NO)c2)cc1)NCCCCNc1cccc2c1C(=O)N(C1CCC(=O)NC1=O)C2=O` (stereo not drawn): the Activity is 20.8%.
Consider `O=C(CCCOc1ccc(CCNC(=O)c2cccc(C(=O)NO)c2)cc1)NCCNc1cccc2c1C(=O)N(C1CCC(=O)NC1=O)C2=O` (stereo not drawn), for which the Activity turned out to be 44.3%.
As for `O=C(CCCCCCOc1ccc(CCNC(=O)c2cccc(C(=O)NO)c2)cc1)NCCCCCNc1cccc2c1C(=O)N(C1CCC(=O)NC1=O)C2=O` (stereo not drawn), the Activity was 23.7%.
Regarding `O=C(COc1ccc(CCNC(=O)c2cccc(C(=O)NO)c2)cc1)NCCCCCCNc1cccc2c1C(=O)N(C1CCC(=O)NC1=O)C2=O` (stereo not drawn), the Activity was determined as 54.5%.
With `O=C1CCC(N2C(=O)c3cccc(N4CCN(C5CN(C(=O)CCCCOc6ccc(CCNC(=O)c7cccc(C(=O)NO)c7)cc6)C5)CC4)c3C2=O)C(=O)N1` (stereo not drawn), the Activity is 39.5%.
As for `O=C1CCC(N2C(=O)c3cccc(N4CCN(C5CCN(C(=O)CCCCOc6ccc(CCNC(=O)c7cccc(C(=O)NO)c7)cc6)CC5)CC4)c3C2=O)C(=O)N1` (stereo not drawn), the figure is 43.2%; as for `O=C(COc1ccc(CCNC(=O)c2cccc(C(=O)NO)c2)cc1)NCCCCNc1cccc2c1C(=O)N(C1CCC(=O)NC1=O)C2=O` (stereo not drawn), 43.6%.
`O=C(CCCOc1ccc(CCNC(=O)c2cccc(C(=O)NO)c2)cc1)NCCCCCCNc1cccc2c1C(=O)N(C1CCC(=O)NC1=O)C2=O` (stereo not drawn): the Activity worked out at 49.6%.
Compound `O=C1CCC(N2C(=O)c3cccc(N4CCC(CN5CCN(C(=O)CCCCOc6ccc(CCNC(=O)c7cccc(C(=O)NO)c7)cc6)CC5)CC4)c3C2=O)C(=O)N1` (stereo not drawn) showed an Activity of 48.3%.
`O=C(CCCCCCOc1ccc(CCNC(=O)c2cccc(C(=O)NO)c2)cc1)NCCCCCCNc1cccc2c1C(=O)N(C1CCC(=O)NC1=O)C2=O` (stereo not drawn) registered an Activity of 25.6%.
Compound `O=C1CCC(N2C(=O)c3cccc(N4CC(CN5CCN(C(=O)CCCCOc6ccc(CCNC(=O)c7cccc(C(=O)NO)c7)cc6)CC5)C4)c3C2=O)C(=O)N1` (stereo not drawn) came in with an Activity of 56.3%.
The compound `O=C(CCCOc1ccc(CCNC(=O)c2cccc(C(=O)NO)c2)cc1)NCCCNc1cccc2c1C(=O)N(C1CCC(=O)NC1=O)C2=O` (stereo not drawn) gave an Activity of 21.2%.
In the case of `O=C(CCCCCOc1ccc(CCNC(=O)c2cccc(C(=O)NO)c2)cc1)NCCNc1cccc2c1C(=O)N(C1CCC(=O)NC1=O)C2=O` (stereo not drawn) it was 72.9%.
As for `O=C(COc1ccc(CCNC(=O)c2cccc(C(=O)NO)c2)cc1)NCCNc1cccc2c1C(=O)N(C1CCC(=O)NC1=O)C2=O` (stereo not drawn), the figure is 25.8%.
For `O=C1CCC(N2C(=O)c3cccc(N4CCN(C(=O)CCCCOc5ccc(CCNC(=O)c6cccc(C(=O)NO)c6)cc5)CC4)c3C2=O)C(=O)N1` (stereo not drawn), the Activity stood at 57.9%.
Take `O=C(CCCCCCOc1ccc(CCNC(=O)c2cccc(C(=O)NO)c2)cc1)NCCCCNc1cccc2c1C(=O)N(C1CCC(=O)NC1=O)C2=O` (stereo not drawn): the Activity came to 19.8%.
In the case of `O=C(CCCCCOc1ccc(CCNC(=O)c2cccc(C(=O)NO)c2)cc1)NCCCCCNc1cccc2c1C(=O)N(C1CCC(=O)NC1=O)C2=O` (stereo not drawn) it was 51.7%.
